Reference: patent US8580768B2, “Cannabinoid receptor antagonists-inverse agonists useful for treating metabolic disorders, including obesity and diabetes” (Jenrin Discovery, Inc., priority 2010, dated 2013)

Molecular target: T1, human cannabinoid CB1 receptor (Homo sapiens, UniProt P21554)
T1 construct: expressed in transfected cells; host or cells: Chinese hamster ovary (CHO) cells, stably transfected; membrane preparations
Experiment: CB1 receptor affinity, [3H]CP-55,940 radioligand displacement on CHO cell membrane preparations
Assay type: binding
Settings: not given
Procedure: CB1 receptor affinities can be determined using membrane preparations of Chinese hamster ovary (CHO) cells in which the human cannabinoid CB1 receptor is stably transfected (Biochem J. 1991, 279, 129-134) in conjunction with [3H]CP-55,940 as radioligand. After incubation of a freshly prepared cell membrane preparation with the [3H]-radioligand, with or without addition of test compound, separation of bound and free ligand is performed by filtration over glass fiber filters. Radioactivity on the filter is measured by liquid scintillation counting. The IC50 values can be determined from at least three independent measurements.
The CB1 IC50 values for tested compounds are as follows.

T1 sequence (P21554 whole entry): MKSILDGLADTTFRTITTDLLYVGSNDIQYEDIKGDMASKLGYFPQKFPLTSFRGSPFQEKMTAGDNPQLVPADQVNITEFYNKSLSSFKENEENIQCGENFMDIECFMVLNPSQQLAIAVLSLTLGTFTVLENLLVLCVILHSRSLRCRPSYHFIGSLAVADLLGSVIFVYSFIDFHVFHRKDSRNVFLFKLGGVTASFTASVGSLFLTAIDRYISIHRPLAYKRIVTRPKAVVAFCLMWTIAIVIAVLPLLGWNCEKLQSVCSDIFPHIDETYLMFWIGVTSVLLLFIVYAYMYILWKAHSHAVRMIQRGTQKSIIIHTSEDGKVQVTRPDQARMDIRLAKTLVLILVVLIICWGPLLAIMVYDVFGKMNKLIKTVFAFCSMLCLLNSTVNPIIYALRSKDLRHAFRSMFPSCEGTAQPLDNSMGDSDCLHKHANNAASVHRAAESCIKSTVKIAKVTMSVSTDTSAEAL

| Compound | IC50 [µM] |
| --- | --- |
| CCOP(=O)(OCC)C(C)NC(=NS(=O)(=O)c1ccc(Cl)cc1)N1CC(c2ccccc2)C(c2ccc(Cl)cc2)=N1 (stereo not shown) [compound 28] | 1 to 10 |

Same assay, conditions: read-out: CB1 IC50

| IC50 [µM] | Compound |
| --- | --- |
| < 0.1 | NS(=O)(=O)CCNC(=O)CNC(=NS(=O)(=O)c1ccc(Cl)cc1)N1CC(c2ccccc2)C(c2ccc(Cl)cc2)=N1 (stereo not shown) [compound 23] |
| < 0.1 | CC(O)C(NC(=NS(=O)(=O)c1ccc(Cl)cc1)N1CC(c2ccccc2)C(c2ccc(Cl)cc2)=N1)C(=O)NCCS(N)(=O)=O (stereo not shown) [compound 25] |
| < 0.1 | COc1cccc(S(=O)(=O)N=C(NC(C)C(N)=O)N2CC(c3ccccc3)C(c3ccc(Cl)cc3)=N2)c1 (stereo not shown) [compound 18] |
| < 0.1 | CC(NC(=NS(=O)(=O)c1cccc(C#N)c1)N1CC(c2ccccc2)C(c2ccc(Cl)cc2)=N1)C(N)=O (stereo not shown) [compound 16] |
| < 0.1 | N#Cc1cccc(S(=O)(=O)N=C(NC2(C(N)=O)CCC2)N2CC(c3ccccc3)C(c3ccc(Cl)cc3)=N2)c1 (stereo not shown) [compound 17] |
| < 0.1 | CC(C)C(NC(=NS(=O)(=O)c1cccc(C#N)c1)N1CC(c2ccccc2)C(c2ccc(Cl)cc2)=N1)C(N)=O (stereo not shown) [compound 5] |
| < 0.1 | COc1cccc(S(=O)(=O)N=C(NC2(C(N)=O)CCC2)N2CC(c3ccccc3)C(c3ccc(Cl)cc3)=N2)c1 (stereo not shown) [compound 10] |
| < 0.1 | COc1ccc(C2=NN(C(=NS(=O)(=O)c3ccc(Cl)cc3)NCCS(N)(=O)=O)CC2c2ccccc2)cc1 (stereo not shown) [compound 20] |
| < 0.1 | NC(CCNC(=NS(=O)(=O)c1ccc(Cl)cc1)N1CC(c2ccccc2)C(c2ccc(Cl)cc2)=N1)=NO (stereo not shown) [compound 8] |
| 0.1 to 1 | CC(C)C(NC(=NS(=O)(=O)c1cccc(C(N)=O)c1)N1CC(c2ccccc2)C(c2ccc(Cl)cc2)=N1)C(N)=O (stereo not shown) [compound 4] |
| < 0.1 | CC(O)C(NC(=NS(=O)(=O)c1cccc(C(=N)N)c1)N1CC(c2ccccc2)C(c2ccc(Cl)cc2)=N1)C(N)=O (stereo not shown) [compound 13] |
| < 0.1 | NS(=O)(=O)CCNC(=NS(=O)(=O)c1ccc(Cl)cc1)N1CC(c2ccccc2)C(c2ccc(Cl)cc2)=N1 (stereo not shown) [compound 3] |
| 0.1 to 1 | COc1cccc(S(=O)(=O)N=C(NC(C(N)=O)C2CC2)N2CC(c3ccccc3)C(c3ccc(Cl)cc3)=N2)c1 (stereo not shown) [compound 21] |
| < 0.1 | NS(=O)(=O)CCNC(=O)C(CO)NC(=NS(=O)(=O)c1ccc(Cl)cc1)N1CC(c2ccccc2)C(c2ccc(Cl)cc2)=N1 (stereo not shown) [compound 26] |
| < 0.1 | N#Cc1cccc(S(=O)(=O)N=C(NC(C(N)=O)C2CCC2)N2CC(c3ccccc3)C(c3ccc(Cl)cc3)=N2)c1 (stereo not shown) [compound 22] |
| < 0.1 | CC(O)C(NC(=NS(=O)(=O)c1ccc(Cl)cc1)N1CC(c2ccccc2)C(c2ccc(Cl)cc2)=N1)C(N)=O (stereo not shown) [compound 7] |
| 1 to 10 | NC(=O)Cc1csc(NC(=NS(=O)(=O)c2ccc(Cl)cc2)N2CC(c3ccccc3)C(c3ccc(Cl)cc3)=N2)n1 (stereo not shown) [compound 27] |
| < 0.1 | NC(CNC(=NS(=O)(=O)c1ccc(Cl)cc1)N1CC(c2ccccc2)C(c2ccc(Cl)cc2)=N1)=NO (stereo not shown) [compound 6] |
| < 0.1 | COc1cccc(S(=O)(=O)N=C(NCCS(N)(=O)=O)N2CC(c3ccccc3)C(c3ccc(Cl)cc3)=N2)c1 (stereo not shown) [compound 14] |
| < 0.1 | CC(O)C(NC(=NS(=O)(=O)c1ccc(Cl)cc1)N1CC(c2ccccc2)C(c2ccc(Cl)cc2)=N1)C(=O)NC(CO)C(N)=O (stereo not shown) [compound 11] |
| 0.1 to 1 | CC(C)C(NC(=NS(=O)(=O)c1cccc(C(=N)N)c1)N1CC(c2ccccc2)C(c2ccc(Cl)cc2)=N1)C(N)=O (stereo not shown) [compound 9] |
| < 0.1 | CC(O)C(NC(=NS(=O)(=O)c1cccc(C#N)c1)N1CC(c2ccccc2)C(c2ccc(Cl)cc2)=N1)C(N)=O (stereo not shown) [compound 12] |
| < 0.1 | COc1ccc(C2=NN(C(=NS(=O)(=O)c3ccc(Cl)cc3)NC(C)C(N)=O)CC2c2ccccc2)cc1 (stereo not shown) [compound 1] |
| < 0.1 | COC(=O)C=CCNC(=NS(=O)(=O)c1ccc(Cl)cc1)N1CC(c2ccccc2)C(c2ccc(Cl)cc2)=N1 (stereo not shown) [compound 24] |
| < 0.1 | N#Cc1cccc(S(=O)(=O)N=C(NCCS(N)(=O)=O)N2CC(c3ccccc3)C(c3ccc(Cl)cc3)=N2)c1 (stereo not shown) [compound 15] |
| < 0.1 | NC(=O)C(CO)NC(=NS(=O)(=O)c1ccc(Cl)cc1)N1CC(c2ccccc2)C(c2ccc(Cl)cc2)=N1 (stereo not shown) [compound 2] |

Test system: not given
Experiment: not given
Settings: type 2 diabetes patients not on other anti-diabetic medications; six months of treatment; baseline value 7.9; placebo reduction 0.3%; cited from earlier work

| Compound | HbA1c levels lowered [%] |
| --- | --- |
| Cc1c(C(=O)NN2CCCCC2)nn(-c2ccc(Cl)cc2Cl)c1-c1ccc(Cl)cc1 [rimonabant] | 0.8 |
